Assays:
Type in all cases: biochemical
KRAS WT = biological target: T1, KRAS WT (Homo sapiens, UniProt P01116); assay: HTRF KRAS-SOS1 interaction assay, wildtype KRAS; conditions: binned ≤2 μM / >2 μM, read-out: Inhibition of KRAS WT (IC50)
T1 construct: made in house; host or cells: E. coli, e.g. BL21 (DE3)
Outline: (§1)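 GST-KRAS + anti-GST-Eu; His-hSOS1 + anti-6His-XL665; cpd in DMSO, duplicate, 10–0.01 μM; ~10 min incubation; HTRF ex 337/em 620, 665 nm; IC50 fitted on 665/620 ratio.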

KRAS G12V = biological target: T2, KRAS G12V (Homo sapiens, UniProt P01116, G12V); assay: HTRF KRAS-SOS1 interaction assay, KRAS G12V; conditions: binned ≤2 μM / >2 μM, read-out: Inhibition of KRAS G12V (IC50)
T2 construct: made in house; host or cells: E. coli, e.g. BL21 (DE3)
Outline: as §1

KRAS G12S = biological target: T3, KRAS G12S (Homo sapiens, UniProt P01116, G12S); assay: HTRF KRAS-SOS1 interaction assay, KRAS G12S; conditions: binned ≤2 μM / >2 μM, read-out: Inhibition of KRAS G12S (IC50)
T3 construct: made in house; host or cells: E. coli, e.g. BL21 (DE3)
Outline: as §1

KRAS G12D = biological target: T4, KRAS G12D (Homo sapiens, UniProt P01116, G12D); assay: HTRF KRAS-SOS1 interaction assay, KRAS G12D; conditions: binned ≤2 μM / >2 μM, read-out: Inhibition of KRAS G12D (IC50)
T4 construct: made in house; host or cells: E. coli, e.g. BL21 (DE3)
Outline: as §1

T3 sequence (P01116 1-188 isoform P01116-2 G12S): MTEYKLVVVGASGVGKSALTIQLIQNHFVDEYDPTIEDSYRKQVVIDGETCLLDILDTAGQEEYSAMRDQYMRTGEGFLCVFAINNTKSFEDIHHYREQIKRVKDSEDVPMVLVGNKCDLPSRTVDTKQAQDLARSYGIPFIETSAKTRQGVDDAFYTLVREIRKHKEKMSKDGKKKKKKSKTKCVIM
T1 sequence (P01116 1-188 isoform P01116-2): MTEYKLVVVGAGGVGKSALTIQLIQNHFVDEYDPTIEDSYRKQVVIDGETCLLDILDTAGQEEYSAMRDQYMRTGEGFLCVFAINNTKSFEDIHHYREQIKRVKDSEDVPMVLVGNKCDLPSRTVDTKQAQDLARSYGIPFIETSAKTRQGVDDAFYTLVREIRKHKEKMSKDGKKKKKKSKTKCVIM
T4 sequence (P01116 1-188 isoform P01116-2 G12D): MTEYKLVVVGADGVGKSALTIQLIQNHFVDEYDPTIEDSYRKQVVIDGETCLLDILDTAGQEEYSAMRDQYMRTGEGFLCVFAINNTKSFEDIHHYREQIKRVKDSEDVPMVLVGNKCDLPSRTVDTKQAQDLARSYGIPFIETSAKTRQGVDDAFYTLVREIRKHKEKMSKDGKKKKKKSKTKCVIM
T2 sequence (P01116 1-188 isoform P01116-2 G12V): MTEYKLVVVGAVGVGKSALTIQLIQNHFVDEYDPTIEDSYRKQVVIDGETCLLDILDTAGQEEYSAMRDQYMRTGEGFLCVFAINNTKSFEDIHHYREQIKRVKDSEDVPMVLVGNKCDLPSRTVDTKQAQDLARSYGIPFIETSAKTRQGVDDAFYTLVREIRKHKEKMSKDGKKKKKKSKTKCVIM

IC50 (KRAS WT) [nM]	IC50 (KRAS G12V) [nM]	IC50 (KRAS G12S) [nM]	IC50 (KRAS G12D) [nM]	SMILES
≤ 2000	≤ 2000	≤ 2000	≤ 2000	N#Cc1c(N)sc2c(F)ccc(-c3c(C(F)(F)F)c4c5c(nc(OC[C@@]67CCCN6C[C@@]6(CC6(F)F)C7)nc5c3F)N([C@H](CCC3CCOCC3)c3cccnc3N)CCO4)c12 [Compound 650, 2-amino-4-(4-((R)-1-(2-aminopyridin-3-yl)-3-(tetrahydro-2H-pyran-4-yl)propyl)-2-(((1S,7a′S)-2,2-difluorodihydro-1′H,3′H-spiro[cyclopropane-1,2′-pyrrolizin]-7a′(5′H)-yl)methoxy)-10-fluoro-8-(trifluoromethyl)-5,6-dihydro-4H-[1,4]oxazepino[5,6,7-de]quinazolin-9-yl)-7-fluorobenzo[b]thiophene-3-carbonitrile]
≤ 2000	≤ 2000	≤ 2000	≤ 2000	C[C@H](c1cc(Cl)cnc1N)N1CCOc2c(C(F)(F)F)c(-c3ccc(F)c4sc(N)c(C#N)c34)c(F)c3nc(OCC4(CN5CCC(F)CC5)CC4)nc1c23 [Compound 830, 2-amino-4-(4-((R)-1-(2-amino-5-chloropyridin-3-yl)ethyl)-10-fluoro-2-((1-((4-fluoropiperidin-1-yl)methyl)cyclopropyl)methoxy)-8-(trifluoromethyl)-5,6-dihydro-4H-[1,4]oxazepino[5,6,7-de]quinazolin-9-yl)-7-fluorobenzo[b]thiophene-3-carbonitrile]
≤ 2000	≤ 2000	≤ 2000	> 2000	C=CC(F)(F)[C@@H](c1cccnc1N)N1CCOc2c(Cl)c(-c3ccc(F)c4sc(N)c(C#N)c34)c(F)c3nc(OC[C@@]45CCCN4C[C@H](F)C5)nc1c23 [Compound 834, 2-amino-4-(4-((R)-1-(2-aminopyridin-3-yl)-2,2-difluorobut-3-en-1-yl)-8-chloro-10-fluoro-2-(((2R,7aS)-2-fluorotetrahydro-1H-pyrrolizin-7a(5H)-yl)methoxy)-5,6-dihydro-4H-[1,4]oxazepino[5,6,7-de]quinazolin-9-yl)-7-fluorobenzo[b]thiophene-3-carbonitrile]
≤ 2000	≤ 2000	≤ 2000	≤ 2000	C[C@H](c1cccnc1N)N1C[C@H](C)Oc2c(C(F)(F)F)c(-c3ccc(F)c4sc(N)c(C#N)c34)c(F)c3nc(OC[C@@]45CCCN4C[C@H](F)C5)nc1c23 (single isomer, unassigned) [Compound 697]
≤ 2000	≤ 2000	≤ 2000	≤ 2000	Cc1cnc(N)c([C@@H](C)N2CCOc3c(C(F)(F)F)c(-c4ccc(F)c5sc(N)c(C#N)c45)c(F)c4nc(OC[C@@]56CCCN5C[C@H](F)C6)nc2c34)c1 (single isomer, unassigned) [Compound 796]
≤ 2000	≤ 2000	≤ 2000	≤ 2000	N#Cc1c(N)sc2c(F)ccc(-c3c(Cl)c4c5c(nc(OC[C@@]67CCCN6C[C@H](F)C7)nc5c3F)N([C@H](C/C=C\C(F)(F)F)c3cccnc3N)CCO4)c12 [Compound 845, 2-amino-4-(4-((R,Z)-1-(2-aminopyridin-3-yl)-5,5,5-trifluoropent-3-en-1-yl)-8-chloro-10-fluoro-2-(((2R,7aS)-2-fluorotetrahydro-1H-pyrrolizin-7a(5H)-yl)methoxy)-5,6-dihydro-4H-[1,4]oxazepino[5,6,7-de]quinazolin-9-yl)-7-fluorobenzo[b]thiophene-3-carbonitrile]
> 2000	> 2000	> 2000	> 2000	C[C@H](c1cccnc1N)N1CCOc2c(C(F)(F)F)c(-c3ccc(F)c4sc(N)c(C#N)c34)c(F)c3nc(OCC4(CN5CCC(=C(F)F)CC5)CC4)nc1c23 (single isomer, unassigned) [Compound 884]
≤ 2000	≤ 2000	≤ 2000	≤ 2000	C[C@H](c1cccnc1N)N1CCOc2nc(-c3ccc(F)c4sc(N)c(C#N)c34)c(F)c3nc(OC[C@@H]4CCCN4C)nc1c23 (single isomer, unassigned) [Compound 651]
≤ 2000	≤ 2000	≤ 2000	≤ 2000	CCO/N=C(\C)CCC[C@H](c1cccnc1N)N1CCOc2c(C(F)(F)F)c(-c3ccc(F)c4sc(N)c(C#N)c34)c(F)c3nc(OC[C@@]45CCCN4C[C@H](F)C5)nc1c23 [Compound 854, 2-amino-4-(4-((R,E)-1-(2-aminopyridin-3-yl)-5-(ethoxyimino)hexyl)-10-fluoro-2-(((2R,7aS)-2-fluorotetrahydro-1H-pyrrolizin-7a(5H)-yl)methoxy)-8-(trifluoromethyl)-5,6-dihydro-4H-[1,4]oxazepino[5,6,7-de]quinazolin-9-yl)-7-fluorobenzo[b]thiophene-3-carbonitrile]
≤ 2000	≤ 2000	≤ 2000	≤ 2000	C=C1CN2CC(=C)CC2(COc2nc3c4c(c(C(F)(F)F)c(-c5ccc(F)c6sc(N)c(C#N)c56)c(F)c4n2)OCCN3[C@H](C)c2cncnc2N)C1 (single isomer, unassigned) [Compound 707]
≤ 2000	≤ 2000	≤ 2000	≤ 2000	C[C@H](c1cncnc1N)N1CCOc2c(C(F)(F)F)c(-c3ccc(F)c4sc(N)c(C#N)c34)c(F)c3nc(OCC4(CN5CCC(F)CC5)CC4)nc1c23 [Compound 908, 2-amino-4-(4-((R)-1-(4-aminopyrimidin-5-yl)ethyl)-10-fluoro-2-((1-((4-fluoropiperidin-1-yl)methyl)cyclopropyl)methoxy)-8-(trifluoromethyl)-5,6-dihydro-4H-[1,4]oxazepino[5,6,7-de]quinazolin-9-yl)-7-fluorobenzo[b]thiophene-3-carbonitrile]
≤ 2000	≤ 2000	≤ 2000	≤ 2000	C[C@H](c1cccnc1N)N1CCOc2c(C(F)(F)F)c(-c3ccc(F)c4sc(N)c(C#N)c34)c(F)c3nc(OCC4(CN5CCC(=CF)CC5)CC4)nc1c23 [Compound 814, 2-amino-4-(4-((R)-1-(2-aminopyridin-3-yl)ethyl)-10-fluoro-2-((1-((4-(fluoromethylene)piperidin-1-yl)methyl)cyclopropyl)methoxy)-8-(trifluoromethyl)-5,6-dihydro-4H-[1,4]oxazepino[5,6,7-de]quinazolin-9-yl)-7-fluorobenzo[b]thiophene-3-carbonitrile]
≤ 2000	≤ 2000	≤ 2000	≤ 2000	CN1CCC[C@H]1COc1nc2c3c(c(Cl)c(-c4ccc(F)c5sc(N)c(C#N)c45)c(F)c3n1)OCCN2C(c1cccnc1N)C(F)F (mixture of isomers) [Compound 769, 2-amino-4-(4-(1-(2-aminopyridin-3-yl)-2,2-difluoroethyl)-8-chloro-10-fluoro-2-(((S)-1-methylpyrrolidin-2-yl)methoxy)-5,6-dihydro-4H-[1,4]oxazepino[5,6,7-de]quinazolin-9-yl)-7-fluorobenzo[b]thiophene-3-carbonitrile]
≤ 2000	≤ 2000	≤ 2000	≤ 2000	Cc1ccnc(N)c1[C@@H](C)N1CCOc2c(C(F)(F)F)c(-c3ccc(F)c4sc(N)c(C#N)c34)c(F)c3nc(OC[C@@]45CCCN4C[C@H](F)C5)nc1c23 (single isomer, unassigned) [Compound 821]
≤ 2000	≤ 2000	≤ 2000	≤ 2000	C[C@H](c1cccnc1N)N1CCOc2c(Cl)c(-c3ccc(F)c4sc(N)c(C#N)c34)c(F)c3nc(OCC45CCCC4CCC5)nc1c23 (single isomer, unassigned) [Compound 914]
≤ 2000	≤ 2000	≤ 2000	≤ 2000	N#Cc1c(N)sc2c(F)ccc(-c3c(Cl)c4c5c(nc(OC[C@@]67CCCN6C[C@H](F)C7)nc5c3F)N([C@H](/C=C/C(F)F)c3cccnc3N)CCO4)c12 [Compound 731, 2-amino-4-(4-((R,E)-1-(2-aminopyridin-3-yl)-4,4-difluorobut-2-en-1-yl)-8-chloro-10-fluoro-2-(((2R,7aS)-2-fluorotetrahydro-1H-pyrrolizin-7a(5H)-yl)methoxy)-5,6-dihydro-4H-[1,4]oxazepino[5,6,7-de]quinazolin-9-yl)-7-fluorobenzo[b]thiophene-3-carbonitrile]
≤ 2000	≤ 2000	≤ 2000	≤ 2000	CC[S+]([O-])[C@@H]1C[C@]2(COc3nc4c5c(c(Cl)c(-c6ccc(F)c7sc(N)c(C#N)c67)c(F)c5n3)OCCN4[C@H](C)c3cccnc3N)CCC[N+]2([O-])C1 (mixture of isomers) [Compound 626, (2R,7aS)-7a-(((9-(2-amino-3-cyano-7-fluorobenzo[b]thiophen-4-yl)-4-((R)-1-(2-aminopyridin-3-yl)ethyl)-8-chloro-10-fluoro-5,6-dihydro-4H-[1,4]oxazepino[5,6,7-de]quinazolin-2-yl)oxy)methyl)-2-(ethylsulfinyl)hexahydropyrrolizine 4(1H)-oxide]
> 2000	> 2000	> 2000	> 2000	C[C@H](c1nccnc1N)N1CCOc2c(C(F)(F)F)c(-c3ccc(F)c4sc(N)c(C#N)c34)c(F)c3nc(OC[C@@]45CCCN4C[C@H](F)C5)nc1c23 (single isomer, unassigned) [Compound 797]
